The values that follow are results of earlier work, collected in patent US10898449B2, “Transdermal therapeutic system containing asenapine” (LTS LOHMANN Therapie-Systeme AG, priority 2016, dated 2021).

The conditions of data set [1]: sublingual administration, therapeutic doses.
A further data set has as its system patients. The conditions noted are these: human, in vivo.

Consider `CN1C[C@H]2c3ccccc3Oc3ccc(Cl)cc3[C@@H]2C1` (relative stereo) [asenapine, (3aRS,12bRS)-rel-5-chloro-2,3,3a,12b-tetrahydro-2-methyl-1H-dibenz[2,3:6,7]oxepino[4,5-c]pyrrole], for which the terminal disposition half-life entry in data set [1] was “around 1 day”. Moreover, in the data set with patients, the “Somnolence and anxiety (very common), share of the patients” value is ≥ 10%.
